Test results as given in US11980620B2, “Compounds and methods for treatment of Diamond Blackfan anemia” (THE CHILDREN'S MEDICAL CENTER CORPORATION, priority 2017, dated 2024).

Assays:
[1] = system: CB CD34+ RPS19sh cells; assay: Erythroid differentiation of CB CD34+ progenitors transduced with shRNAs for RPS19; type: cell-based, human
Description: (FIG. 8A) The distribution of 1440 compounds by Z-score in a proliferation-based screen of the Sigma LOPAC chemical library. DBA CD34-5F cells were plated in erythroid-promoting conditions in 384-well format. Erythroid proliferation was measured in the presence of 5 μM of each compound, and converted into Z-scores. The screen was carried out with 3 RPS19 DBA and 2 normal iPSC lines. (FIG. 88) Dose-dependent effect of SMER28 (in μM) on erythroid differentiation, shown as the absolute number of erythroid cells in each drug-treated condition normalized to vehicle (DMSO) control. Erythroid cells were analyzed on day 9 of differentiation using markers CD71 and GlyA. […] (FIG. 8C) Absolute number of erythroid cells (analyzed on day 9) in each drug-treated condition normalized to vehicle (DMSO) control (4 independent experiments). […]
(FIG. 12A) Erythroid differentiation of control and DBA CD34-5F cells treated with DMSO vehicle or SMER28 (10 μM) during the initial CD34^+ progenitor phase (day 0-4 of differentiation), or stage I of erythroid culture (day 4-9 of differentiation). Percent of erythroid cells after stage I of differentiation is indicated in top left for each condition, and quantitated in (FIG. 12B). […] GFP^+ RPS19^sh and GFP^− control cells were quantitated separately. […] Arrows indicate enucleated RBCs, which are quantitated by flow cytometry. […]

[2] = system: mice with irradiation-induced anemia; assay: Irradiation-induced anemia in mice, peripheral blood RBC counts and hematocrit; type: in vivo, mouse; conditions: 10 mg/kg, 3 weeks, sub-lethally irradiated mice
Description: (FIG. 10A) SMER28 rescues RBC output in rps29^+/− zebrafish embryos. The level of hemoglobin in the yolk sac was visualized 40hpf with benzidine staining. Images are representative of the proportion of embryos indicated (of total counted). (FIG. 10B) Quantitation of SMER28 rescue for a range of 0.1-1 μM, with embryos grouped by high, medium, and low levels of hemoglobin staining. (FIG. 10C) Peripheral blood (PB) RBC counts and hematocrit in mice with irradiation-induced anemia. Mice were treated with the PEG400-based vehicle containing DMSO (VEH) (n=11), 1 mg/kg Dex (sodium-phosphate) (n=13), or 10 mg/kg SMER28 (n=9) for 3 weeks, bled, and assessed. Data are combined from 3 independent experiments. (FIG. 10D) Erythroid cells as proportion of the human graft in mice transplanted with DBA CD34-5F progenitors, and treated as in (FIG. 1c). (FIG. 10E) Levels of human engraftment in NSG mouse bone marrow (BM) transplanted with CB CD34^+ cells. Mice were treated with DMSO plus vehicle (VEH) (n=10), 1 mg/kg Dex (sodium-phosphate) (n=6), or 2 mg/kg SMER28 (n=11) for 4 weeks. (FIG. 10F) The proportion of erythroid, myeloid, and lymphoid (B cells) lineages within the human graft in vehicle- and SMER28-treated mice transplanted with CB CD34^+ cells. Only the effect on the erythroid lineage was significant. Data in FIGS. 10E-10G are pooled from 2 independent experiments. […]

Compound: C=CCNc1ncnc2ccc(Br)cc12 [SMER28, 6-Bromo-N-2-propenyl-4-quinazolinam]
- erythroid output of RPS19sh cells ([1]; dose curve, highest activity at lower doses): robustly increased
- erythroid output ([1]; treatment of undifferentiated CD34+ RPS19sh cells): sufficient to improve erythroid output
- hematocrit vs vehicle ([2]; p=0.04): modestly elevated
- peripheral blood RBC counts vs vehicle ([2]; p=0.07): modestly elevated
